From patent US20250032454A1, “KDM1A INHIBITORS FOR THE TREATMENT OF DISEASE” (Imago Biosciences, Inc., priority 2021, published 2025)
Like-named read-outs stand apart in the source and are kept apart here.

Assays:
LSD1 = LSD1 (Homo sapiens, UniProt O60341); assay: LSD1 fluorescence coupling enzyme assay (HRP/Amplex Red, H3(1-21)K4me2 peptide), 10-dose IC50; format: biochemical; conditions: 10 μM histone H3(1-21)K4me2 peptide substrate, 3-fold serial dilution from 100 μM
In short: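 Fluorescence coupled assay: LSD1 demethylation of 10 μM H3(1-21)K4me2 peptide produces FAD-dependent H2O2, detected via HRP/Amplex Red as resorufin (Ex/Em 535/590 nm). IC50 from 10 doses, 3-fold serial dilution from 100 μM, in duplicate.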

MV4;11 cells = assay: Cell Titer-Glo cell growth inhibition in MV4;11 cell line (Day 5 / Day 10); format: cell-based; conditions: Homo sapiens
Description: Cell growth inhibition against MV4;11 cells was confirmed for the synthetic compounds. The Cell Titer-Glo Luminescent Cell Viability Assay (Promega, USA) was used to determine the number of viable cells in culture based on quantitation of the ATP present, which signals the presence of metabolically active cells. This assay was run in a 96-well plate format arrayed in a 10-point dose curve, ranging from 0 to 50 µM with 4-fold dilutions for each compound. Cells are seeded on Day 0 at 3750 cells per well. At Day 5, a portion of each well is assayed for viability according to the Cell Titer-Glo protocol. Briefly, cells/plates were centrifuged at 1100×g for 5 minutes. 100 μL of media was removed from each well and replaced with 100 μL of CellTiter-Glo. The plates were shaken at room temperature for 10 minutes and measured on a luminescence plate reader. Another portion of each well from the Day 5 plate is used to seed a new 96 plate containing fresh compound and media set up in the equivalent 10-point dose curve array in order to continue the cell growth inhibition assay for another 5 days. A final timepoint is collected at Day 10 using the Cell Titer-Glo protocol. Luminescence was detected on an En Vision® Multilabel Plate Reader (Perkin Elmer, Waltham, Mass.) and IC50 determination was made using Graph Pad Prism software.

[1] = MV4-11, 120 h, Day 5, read-out: Cell Titer-Glo IC50 (5 d)
[2] = MV4-11, 240 h, Day 10, read-out: Cell Titer-Glo IC50 (10 d)

## CN[C@@H]1CCCC(CNc2cc(-c3ccc(C#N)c(F)c3)n(-c3ccc(OC)cc3)n2)C1 (single isomer, unassigned) [Example 32b]
LSD1
  IC50: 1000 to 10000 nM
MV4;11 cells; [1]
  IC50: 1000 to 10000 nM

## CN[C@H]1CCC[C@H](CNc2cc(-c3ccc(C#N)c(F)c3)n(-c3ccc(OC)cc3)n2)C1 (single isomer, unassigned) [Example 33a]
LSD1
  IC50: 500 to 1000 nM
MV4;11 cells; [1]
  IC50: 1000 to 10000 nM

## CN[C@@H]1CCC[C@@H](CNc2cc(-c3ccc(C#N)c(F)c3)n(-c3ccc(OC)cc3)n2)C1 (single isomer, unassigned) [Example 33b]
LSD1
  IC50: < 500 nM
MV4;11 cells; [1]
  IC50: 1000 to 10000 nM

## COc1ccc(-n2nc(N)cc2-c2ccc(C#N)c(F)c2)cc1 [Example 1, 4-(3-Amino-1-(4-methoxyphenyl)-1H-pyrazol-5-yl)-2-fluorobenzonitrile]
LSD1
  IC50: > 10000 nM
MV4;11 cells; [1]
  IC50: > 10000 nM

## COc1ccc(-n2nc(NCC3CCNCC3)cc2-c2ccc(C#N)c(F)c2)cc1 [Example 2, 2-Fluoro-4-(1-(4-methoxyphenyl)-3-((piperidin-4-ylmethyl)amino)-1H-pyrazol-5-yl)benzonitrile]
LSD1
  IC50: < 500 nM
MV4;11 cells; [1]
  IC50: < 500 nM

## COc1ccc(-n2nc(NCC3CCCNC3)cc2-c2ccc(C#N)c(F)c2)cc1 (stereo not drawn) [Example 3, 2-fluoro-4-(1-(4-methoxyphenyl)-3-((piperidin-3-ylmethyl)amino)-1H-pyrazol-5-yl)benzonitrile]
LSD1
  IC50: < 500 nM
MV4;11 cells; [1]
  IC50: < 500 nM

## COc1ccc(-n2nc(NCC3CCNC3)cc2-c2ccc(C#N)c(F)c2)cc1 (stereo not drawn) [Example 8, 2-fluoro-4-(1-(4-methoxyphenyl)-3-((pyrrolidin-3-ylmethyl)amino)-1H-pyrazol-5-yl)benzonitrile]
LSD1
  IC50: < 500 nM
MV4;11 cells; [1]
  IC50: < 500 nM

## Cn1cc2cc(-n3nc(NCC4CCCNC4)cc3-c3ccc(C#N)c(F)c3)ccc2n1 (stereo not drawn) [Example 9, 2-Fluoro-4-(1-(2-methyl-2H-indazol-5-yl)-3-((piperidin-3-ylmethyl)amino)-1H-pyrazol-5-yl)benzonitrile]
LSD1
  IC50: < 500 nM
MV4;11 cells; [1]
  IC50: < 500 nM

## Cn1cc2cc(-n3nc(NCC4CCNCC4)cc3-c3ccc(C#N)c(F)c3)ccc2n1 [Example 10, 2-Fluoro-4-(1-(2-methyl-2H-indazol-5-yl)-3-((piperidin-4-ylmethyl)amino)-1H-pyrazol-5-yl)benzonitrile]
LSD1
  IC50: < 500 nM
MV4;11 cells; [1]
  IC50: < 500 nM

## COc1ccc(-n2nc(NC[C@@H]3CCC[C@@H](N)C3)cc2-c2ccc(C#N)c(F)c2)cc1 [Example 11RR, 4-(3-((((1R,3R)-3-aminocyclohexyl)methyl)amino)-1-(4-methoxyphenyl)-1H-pyrazol-5-yl)-2-fluorobenzonitrile]
LSD1
  IC50: 500 to 1000 nM
MV4;11 cells; [1]
  IC50: 1000 to 10000 nM

## Cc1ccc(-n2nc(NC[C@@H]3CCC[C@@H](N)C3)cc2-c2ccc(C#N)c(F)c2)cc1 [Example 12RR, 4-(3-((((1R,3R)-3-aminocyclohexyl)methyl)amino)-1-(p-tolyl)-1H-pyrazol-5-yl)-2-fluorobenzonitrile]
LSD1
  IC50: 500 to 1000 nM
MV4;11 cells; [1]
  IC50: 1000 to 10000 nM
MV4;11 cells; [2]
  IC50: < 500 nM

## Cc1ccc(-n2nc(NC[C@H]3CCC[C@H](N)C3)cc2-c2ccc(C#N)c(F)c2)cc1 [Example 12SS, 4-(3-((((1S,3S)-3-aminocyclohexyl)methyl)amino)-1-(p-tolyl)-1H-pyrazol-5-yl)-2-fluorobenzonitrile]
LSD1
  IC50: < 500 nM
MV4;11 cells; [1]
  IC50: < 500 nM
MV4;11 cells; [2]
  IC50: < 500 nM

## Cn1cc2cc(-n3nc(NC[C@@H]4CCC[C@@H](N)C4)cc3-c3ccc(C#N)c(F)c3)ccc2n1 [Example 13RR, 4-(3-((((1R,3R)-3-aminocyclohexyl)methyl)amino)-1-(2-methyl-2H-indazol-5-yl)-1H-pyrazol-5-yl)-2-fluorobenzonitrile]
LSD1
  IC50: < 500 nM
MV4;11 cells; [1]
  IC50: 1000 to 10000 nM
MV4;11 cells; [2]
  IC50: < 500 nM

## Cn1cc2cc(-n3nc(NC[C@H]4CCC[C@H](N)C4)cc3-c3ccc(C#N)c(F)c3)ccc2n1 [Example 13SS, 4-(3-((((1S,3S)-3-aminocyclohexyl)methyl)amino)-1-(2-methyl-2H-indazol-5-yl)-1H-pyrazol-5-yl)-2-fluorobenzonitrile]
LSD1
  IC50: < 500 nM
MV4;11 cells; [2]
  IC50: < 500 nM

## Cn1nc2ccc(-n3nc(NC[C@@H]4CCC[C@@H](N)C4)cc3-c3ccc(C#N)c(F)c3)cc2c1Cl [Example 14RR, 4-(3-((((1R,3R)-3-aminocyclohexyl)methyl)amino)-1-(3-chloro-2-methyl-2H-indazol-5-yl)-1H-pyrazol-5-yl)-2-fluorobenzonitrile]
LSD1
  IC50: < 500 nM
MV4;11 cells; [1]
  IC50: < 500 nM
MV4;11 cells; [2]
  IC50: < 500 nM

## Cn1nc2ccc(-n3nc(NC[C@H]4CCC[C@H](N)C4)cc3-c3ccc(C#N)c(F)c3)cc2c1Cl [Example 14SS, 4-(3-((((1S,3S)-3-aminocyclohexyl)methyl)amino)-1-(3-chloro-2-methyl-2H-indazol-5-yl)-1H-pyrazol-5-yl)-2-fluorobenzonitrile]
LSD1
  IC50: < 500 nM
MV4;11 cells; [2]
  IC50: < 500 nM

## N#Cc1ccc(-c2cc(NC[C@H]3CCC[C@H](N)C3)nn2-c2ccc3c(cnn3-c3ccccc3)c2)cc1F [Example 15, 4-(3-((((1S,3S)-3-aminocyclohexyl)methyl)amino)-1-(1-phenyl-1H-indazol-5-yl)-1H-pyrazol-5-yl)-2-fluorobenzonitrile]
LSD1
  IC50: < 500 nM
MV4;11 cells; [1]
  IC50: < 500 nM
MV4;11 cells; [2]
  IC50: < 500 nM

## N#Cc1ccc(-c2cc(NC[C@H]3CCC[C@H](N)C3)nn2-c2ccc3nn(-c4ccccc4)cc3c2)cc1F [Example 16, 4-(3-((((1S,3S)-3-aminocyclohexyl)methyl)amino)-1-(2-phenyl-2H-indazol-5-yl)-1H-pyrazol-5-yl)-2-fluorobenzonitrile]
LSD1
  IC50: < 500 nM
MV4;11 cells; [1]
  IC50: < 500 nM
MV4;11 cells; [2]
  IC50: < 500 nM

## N#Cc1ccc(-c2cc(NC[C@H]3CCC[C@H](N)C3)nn2-c2ccncc2)cc1F [Example 17, 4-(3-((((1S,3S)-3-aminocyclohexyl)methyl)amino)-1-(pyridin-4-yl)-1H-pyrazol-5-yl)-2-fluorobenzonitrile]
LSD1
  IC50: > 10000 nM
MV4;11 cells; [1]
  IC50: 1000 to 10000 nM
MV4;11 cells; [2]
  IC50: 1000 to 10000 nM

## COc1ccc(-n2nc(NC[C@H]3CCC[C@H](N)C3)cc2-c2ccc(C(F)(F)F)c(F)c2)cc1 [Example 18, N-(((1S,3S)-3-aminocyclohexyl)methyl)-5-(3-fluoro-4-(trifluoromethyl)phenyl)-1-(4-methoxyphenyl)-1H-pyrazol-3-amine]
LSD1
  IC50: 1000 to 10000 nM
MV4;11 cells; [1]
  IC50: 500 to 1000 nM
MV4;11 cells; [2]
  IC50: 500 to 1000 nM

## N#Cc1ccc(-c2cc(NC[C@H]3CCC[C@H](N)C3)nn2-c2ccc(N3CCCC3)cc2)cc1F [Example 19, 4-(3-((((1S,3S)-3-aminocyclohexyl)methyl)amino)-1-(4-(pyrrolidin-1-yl)phenyl)-1H-pyrazol-5-yl)-2-fluorobenzonitrile]
LSD1
  IC50: < 500 nM
MV4;11 cells; [1]
  IC50: < 500 nM
MV4;11 cells; [2]
  IC50: < 500 nM

## CO[C@H]1CCN(c2ccc(-n3nc(NC[C@H]4CCC[C@H](N)C4)cc3-c3ccc(C#N)c(F)c3)c(F)c2)C1 [Example 20, 4-(3-((((1S,3S)-3-aminocyclohexyl)methyl)amino)-1-(2-fluoro-4-((S)-3-methoxypyrrolidin-1-yl)phenyl)-1H-pyrazol-5-yl)-2-fluorobenzonitrile]
LSD1
  IC50: < 500 nM
MV4;11 cells; [2]
  IC50: < 500 nM

## Cn1cc2cc(-n3nc(NC[C@@H]4CCNC4)cc3-c3ccc(C#N)c(F)c3)ccc2n1 [Example 21R, (R)-2-fluoro-4-(1-(2-methyl-2H-indazol-5-yl)-3-((pyrrolidin-3-ylmethyl)amino)-1H-pyrazol-5-yl)benzonitrile]
LSD1
  IC50: 500 to 1000 nM
MV4;11 cells; [1]
  IC50: 500 to 1000 nM

## Cn1cc2cc(-n3nc(NC[C@H]4CCNC4)cc3-c3ccc(C#N)c(F)c3)ccc2n1 [Example 21S, (S)-2-fluoro-4-(1-(2-methyl-2H-indazol-5-yl)-3-((pyrrolidin-3-ylmethyl)amino)-1H-pyrazol-5-yl)benzonitrile]
LSD1
  IC50: < 500 nM
MV4;11 cells; [1]
  IC50: < 500 nM

## COc1ccc(-n2nc(NCC3CCCNCC3)cc2-c2ccc(C#N)c(F)c2)cc1 (stereo not drawn) [Example 22, 4-(3-((azepan-4-ylmethyl)amino)-1-(4-methoxyphenyl)-1H-pyrazol-5-yl)-2-fluorobenzonitrile]
LSD1
  IC50: < 500 nM
MV4;11 cells; [1]
  IC50: 1000 to 10000 nM
MV4;11 cells; [2]
  IC50: < 500 nM

## Cn1ncc2cc(-n3nc(NCC45CCN(CC4)CC5)cc3-c3ccc(C#N)c(F)c3)ccc21 [Example 23, 2-fluoro-4-(1-(1-methyl-1H-indazol-5-yl)-3-((quinuclidin-4-ylmethyl)amino)-1H-pyrazol-5-yl)benzonitrile]
LSD1
  IC50: < 500 nM
MV4;11 cells; 120 h, Day 5, read-out: Cell Titer-Glo IC50 (5 d)
  IC50: < 500 nM
MV4;11 cells; 240 h, Day 10, read-out: Cell Titer-Glo IC50 (10 d)
  IC50: < 500 nM

## N#Cc1ccc(-c2cc(NCC3CCCNCC3)nn2-c2ccc(N3CCCC3)cc2)cc1F (stereo not drawn) [Example 24, 4-(3-((azepan-4-ylmethyl)amino)-1-(4-(pyrrolidin-1-yl)phenyl)-1H-pyrazol-5-yl)-2-fluorobenzonitrile]
LSD1
  IC50: < 500 nM
MV4;11 cells; [1]
  IC50: < 500 nM
MV4;11 cells; [2]
  IC50: < 500 nM
